These compounds were tested against T1, RORγ (Homo sapiens, UniProt P51449) (assay: RORγ GAL4 reporter gene assay (luciferase readout, 293FT cells)). Details: inhibition of RORγ (GAL4-RORγ-LBD) in transfected 293FT cells, luciferase signal, overnight incubation; read-out: mean pIC50 (converted).
T1 construct: expressed in transfected cells; host or cells: 293FT cells (Invitrogen), expression vector pFN26A (Promega)
T1 sequence (P51449 269-508 limits assumed): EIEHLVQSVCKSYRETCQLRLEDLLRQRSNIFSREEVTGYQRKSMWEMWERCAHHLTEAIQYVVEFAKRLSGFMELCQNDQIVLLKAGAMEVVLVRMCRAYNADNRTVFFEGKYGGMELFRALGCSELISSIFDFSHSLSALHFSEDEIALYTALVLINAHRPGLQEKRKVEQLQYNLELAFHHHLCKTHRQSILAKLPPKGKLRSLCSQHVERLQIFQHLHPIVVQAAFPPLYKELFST
Assay type: cell-based
Procedure: RORγ GAL4 Reporter Gene Assay
Example inhibitors 1-47 were tested for their ability to inhibit RORγ activity in a RORγ GAL4 reporter gene assay. The assay procedure and results are described below.
RORγ GAL4 Reporter Gene Assay Description
A GAL4 one-hybrid reporter system employing luciferase readout was established to determine inhibition of RORγ in 293FT cells. The RORγ ligand-binding domain (LBD) was fused to the yeast GAL4 DNA binding domain (DBD) and placed under the control of the human cytomegalovirus (CMV) immediate early promoter, using expression vector pFN26A (Promega) and standard recombinant DNA cloning methods. To serve as a control in the assay, a similar vector was generated in which the GAL4-DBD was fused to Herpes simplex virus protein 16 (VP16), a constitutive transcriptional activator.
To monitor the inhibitory effect of compounds on RORγ, a transcriptional reporter construct was used. The pGL4.35 vector (Promega) contains nine copies of the GAL4 Upstream Activator Sequence (UAS). This sequence drives the transcription of the luciferase reporter gene luc2P in response to binding of a fusion protein containing the GAL4 DNA binding domain, as for example expressed by the GAL4-RORγ-LBD and GAL4-VP16 expression vectors described above. To allow a GAL4 fusion protein to drive the expression of the luciferase reporter, the pGL4.35 expression vector and the appropriate GAL4 fusion protein expression vector were bulk transfected in the 293FT cells using standard transfection techniques.
The day after transfection, cells were plated into 96 well plates, test compound was added and the plates were incubated overnight. Subsequently, the firefly luciferase activity was quantified using luciferase detection reagent and luminescence readout.
Detailed Assay Description
293FT cells (Invitrogen) were transfected with a GAL4 fusion protein expression vector (as described above) and the transcriptional reporter construct (pGL4.35, Promega). 60 μL of TransIT-293 transfection reagent (Mirus Bio) was added drop wise to 1500 μl Opti-MEM I Reduced Serum Medium (Invitrogen) and incubated at room temperature (RT) for 5 to 20 minutes. 1500 μL of this reagent mixture was added to 5 μg of GAL4 fusion protein expression vector and 5 μg of the transcriptional reporter construct, and incubated at RT for 20 minutes.
To harvest 293FT cells from a T75 flask, first the culture medium was taken off the cells. Subsequently, the cells were washed with Phosphate Buffered Saline (PBS) (Lonza), after which the PBS was removed. To dissociate the cells, 1 ml of TrypLE Express (Invitrogen) was added to the flask, followed by incubation at RT until the cells visually started to detach. Cells were collected in 5 mL of assay medium (DMEM culture medium (Lonza), 10% dialyzed FBS (Invitrogen) and Pen/Strep (Lonza)) to achieve a single cell suspension. 10×10^6 cells were spun down and re-suspended in 10 mL of assay medium. Subsequently, the cell suspension was added to the transfection mix tube, and then transferred as a whole to a T75 flask (Greiner), followed by overnight (16-24 hours) incubation at 37° C. and 5% CO2.
For compound screening, the cells were harvested (as described above) and counted. 13×10^6 cells were spun down, the supernatant was aspirated and the cells were re-suspended in 17.3 mL of assay medium obtaining a cell suspension of 0.75×10^6 cells/mL. 80 μL of cell suspension (60,000 cells) was plated per well into a white, flat bottom, tissue culture treated, 96 well screening plates (Greiner).
Test compounds were diluted, starting from a 10 mM dimethylsulf oxide (DMSO) stock solution, to serial dilutions in DMSO at 500× the final test concentration. Subsequently, these solutions were diluted to 5× the final test concentration in two 10-fold-dilution steps in assay medium. The final DMSO concentration of the 5× test compound solution was 1%. […]

SMILES | IC50 [nM]
O=C(Cc1ccc(S(=O)(=O)CC2CC2)cc1)Nc1cc(-c2cccnc2)cs1 [Example 25, 2-(4-cyclopropylmethanesulfonylphenyl)-N-[4-(pyridin-3-yl)thiophen-2-yl]acetamide] | ≤ 1000
O=C(Cc1ccc(S(=O)(=O)CC2CC2)cc1)Nc1cc(-c2ccccc2)c(C(=O)c2ccccc2)s1 [Example 27, N-(5-benzoyl-4-phenylthiophen-2-yl)-2-(4-cyclopropylmethanesulfonylphenyl)acetamide] | ≤ 100
COc1cccc(Oc2cc(NC(=O)Cc3ccc(S(=O)(=O)CC4CC4)cc3)ccc2-c2cccc(F)c2)c1 [Example 2, 2-(4-cyclopropylmethanesulfonylphenyl)-N-[4-(3-fluorophenyl)-3-(3-methoxyphenoxy)phenyl]acetamide] | ≤ 100
COc1cccc(Oc2cc(NC(=O)Cc3ccc(S(=O)(=O)NC4CC4)cc3)ccc2-c2cccc(F)c2)c1 [Example 16, 2-[4-(cyclopropylsulfamoyl)phenyl]-N-[4-(3-fluorophenyl)-3-(3-methoxyphenoxy)phenyl]acetamide] | ≤ 1000
O=C(Cc1ccc(S(=O)(=O)CC2CC2)cc1)Nc1ccc(-c2cccc(F)c2)c(Oc2cccc(C(F)(F)F)c2)c1 [Example 11, 2-(4-cyclopropylmethanesulfonylphenyl)-N-[4-(3-fluorophenyl)-3-[3-(trifluoromethyl)phenoxy]phenyl]acetamide] | ≤ 100
O=C(Cc1ccc(S(=O)(=O)CC2CC2)cc1)Nc1nc(-c2cccc(Cl)c2)c(C(=O)c2ccc(Cl)cc2)s1 [Example 23, N-[5-(4-chlorobenzoyl)-4-(3-chlorophenyl)-1,3-thiazol-2-yl]-2-(4-cyclopropylmethanesulfonylphenyl)acetamide] | ≤ 100
O=C(Cc1ccc(S(=O)(=O)CC2CC2)cc1)Nc1nc(-c2ccccc2)c(C(=O)c2ccccc2)s1 [Example 22, N-(5-benzoyl-4-phenyl-1,3-thiazol-2-yl)-2-(4-cyclopropylmethanesulfonylphenyl)acetamide] | ≤ 100
O=C(Cc1ccc(S(=O)(=O)CC2CC2)cc1)Nc1nc(-c2ccccc2)c(Oc2cccnc2)s1 [Example 21, 2-(4-cyclopropylmethanesulfonylphenyl)-N-[4-phenyl-5-(pyridin-3-yloxy)-1,3-thiazol-2-yl]acetamide] | ≤ 1000
O=C(Cc1ccc(S(=O)(=O)CC2CC2)cc1)Nc1nc(-c2ccccc2)c(Oc2ccccc2)s1 [Example 20, 2-(4-cyclopropylmethanesulfonylphenyl)-N-(5-phenoxy-4-phenyl-1,3-thiazol-2-yl)acetamide] | ≤ 1000
O=C(Cc1ccc(S(=O)(=O)CC2CC2)cc1)Nc1ccc(-c2cc(F)cc(F)c2)c(Oc2cccc(Cl)c2)c1 [Example 8, N-[3-(3-chlorophenoxy)-4-(3,5-difluorophenyl)phenyl]-2-(4-cyclopropylmethanesulfonylphenyl)acetamide] | ≤ 100
O=C(Cc1ccc(S(=O)(=O)CC2CC2)cc1)Nc1ccc(-c2cccc(F)c2)c(Oc2cccc(Cl)c2)c1 [Example 4, N-[3-(3-chlorophenoxy)-4-(3-fluorophenyl)phenyl]-2-(4-cyclopropylmethanesulfonylphenyl)acetamide] | ≤ 100
O=C(Cc1ccc(S(=O)(=O)NC2CC2)cc1)Nc1ccc(-c2cccc(F)c2)c(Oc2cccc(C(F)(F)F)c2)c1 [Example 19, 2-[4-(cyclopropylsulfamoyl)phenyl]-N-[4-(3-fluorophenyl)-3-[3-(trifluoromethyl)phenoxy]phenyl]acetamide] | ≤ 1000
O=C(Cc1ccc(S(=O)(=O)CC2CC2)cc1)Nc1cc(Cl)c(-c2ccccc2OC(F)(F)F)c(Cl)c1 [Example 30, 2-(4-cyclopropylmethanesulfonylphenyl)-N-{3,5-dichloro-4-[2-(trifluoromethoxy)phenyl]phenyl}acetamide] | ≤ 100
O=C(Cc1ccc(S(=O)(=O)CC2CC2)cc1)Nc1ccc(-c2cccc(F)c2)c(Oc2cc(F)cc(F)c2)c1 [Example 13, 2-(4-cyclopropylmethanesulfonylphenyl)-N-[3-(3,5-difluorophenoxy)-4-(3-fluorophenyl)phenyl]acetamide] | ≤ 100
N#Cc1cccc(Oc2cc(NC(=O)Cc3ccc(S(=O)(=O)CC4CC4)cc3)ccc2-c2ccc(F)c(F)c2)c1 [Example 6, N-[3-(3-cyanophenoxy)-4-(3,4-difluorophenyl)phenyl]-2-(4-cyclopropylmethanesulfonylphenyl)acetamide] | ≤ 100
O=C(Cc1ccc(S(=O)(=O)NC2CC2)cc1)Nc1nc(-c2ccccc2)c(C(=O)c2ccccc2)s1 [Example 26, N-(5-benzoyl-4-phenyl-1,3-thiazol-2-yl)-2-[4-(cyclopropylsulfamoyl)phenyl]acetamide] | ≤ 100

Results, then the compound that gave them:

IC50 [nM] | SMILES
≤ 100 | Cc1cc(NC(=O)Cc2ccc(S(=O)(=O)CC3CC3)cc2)nc(C)c1-c1ccccc1OC(F)(F)F [Example 37, 2-(4-cyclopropylmethanesulfonylphenyl)-N-{4,6-dimethyl-5-[2-(trifluoromethoxy)phenyl]pyridin-2-yl}acetamide]
≤ 100 | Cc1cc(NC(=O)Cc2ccc(S(=O)(=O)NC3CC3)cc2)ccc1-c1ccccc1OC(F)(F)F [Example 36, 2-[4-(cyclopropylsulfamoyl)phenyl]-N-{3-methyl-4-[2-(trifluoromethoxy)phenyl]phenyl}acetamide]
≤ 1000 | O=C(Cc1ccc(S(=O)(=O)CC2CC2)cc1)Nc1ccc(-n2cccn2)cc1 [Example 44, 2-(4-cyclopropylmethanesulfonylphenyl)-N-[4-(1H-pyrazol-1-yl)phenyl]acetamide]
≤ 1000 | O=C(Cc1ccc(S(=O)(=O)CC2CC2)cc1)Nc1ccc(-n2cncn2)cc1 [Example 46, 2-(4-cyclopropylmethanesulfonylphenyl)-N-[4-(1H-1,2,4-triazol-1-yl)phenyl]acetamide]
≤ 1000 | Cc1ccn(-c2ccc(NC(=O)Cc3ccc(S(=O)(=O)CC4CC4)cc3)cc2)n1 [Example 40, 2-(4-cyclopropylmethanesulfonylphenyl)-N-[4-(3-methyl-1H-pyrazol-1-yl)phenyl]acetamide]
≤ 100 | Cc1nc(NC(=O)Cc2ccc(S(=O)(=O)CC3CC3)cc2)ccc1-c1ccccc1OC(F)(F)F [Example 32, 2-(4-cyclopropylmethanesulfonylphenyl)-N-{6-methyl-5-[2-(trifluoromethoxy)phenyl]pyridin-2-yl}acetamide]
≤ 100 | Cc1cc(NC(=O)Cc2ccc(S(=O)(=O)CC3CC3)cc2)ncc1-c1ccccc1OC(F)(F)F [Example 31, 2-(4-cyclopropylmethanesulfonylphenyl)-N-{4-methyl-5-[2-(trifluoromethoxy)phenyl]pyridin-2-yl}acetamide]
≤ 1000 | Cc1cnn(-c2ccc(NC(=O)Cc3ccc(S(=O)(=O)CC4CC4)cc3)cc2)c1 [Example 42, 2-(4-cyclopropylmethanesulfonylphenyl)-N-[4-(4-methyl-1H-pyrazol-1-yl)phenyl]acetamide]
≤ 1000 | Cc1ccnn1-c1ccc(NC(=O)Cc2ccc(S(=O)(=O)CC3CC3)cc2)cc1 [Example 41, 2-(4-cyclopropylmethanesulfonylphenyl)-N-[4-(5-methyl-1H-pyrazol-1-yl)phenyl]acetamide]
